Patent US20220243211A1, “PEPTIDE NUCLEIC ACID COMPOSITIONS WITH MODIFIED HOOGSTEEN BINDING SEGMENTS AND METHODS OF USE THEREOF” (Yale University, priority 2019, published 2022)

System: CFBE cells
Assay: Comet assay for DNA damage
Format: cell-based, human
Settings: versus untreated cells
Experimental: FIG. 6 is a bar graph showing the results of a comet assay for DNA damage. TriTek Comet Score FreeWare was used to calculate comet tail moment for each treatment condition. Plots show the average comet tail moment which indicates the extent of DNA damage. Error bars represent the SEM; ****P<0.0001 by unpaired t-test.
50,000 CFBE cells were plated per well in 6-well plates. The following day, the cells were treated with the indicated PNA containing NPs, treated with lipfectamine alone, or transfected with CRISPR-based editing reagents. The next day, cells were collected and prepared using the Trevigen Comet Assay kit per the manufacturer's protocol (Trevigen, Gaithersburg, Md.). Briefly, cells were suspended in agarose and added to comet slides. After the agarose solidified, the slides were incubated for 1 hour in lysis solution, placed in electrophoresis solution for 30 min, then run at 21 V for 1 hour at 4° C. The slides were then placed in acetate solution for 30 min, then incubated in 70% ethanol solution for 30 min. The comet slides were then dried, stained with SYBR Green for 30 min and then visualized using an EVOS microscope. TriTek Comet Score freeware was used to analyze the images. The average comet tail moment was plotted for each condition. Error bars represent the SEM; ****P<0.0001 by unpaired t-test. […]

## H-KKK-TJTJJTTT-OOO-TTTCCTCTATGGGTAAG-KKK-NH2 [γhCF PNA-h] (TNTNNTTTTTTCCTCTATGGGTAAG; listed as DNA, chemistry not fully specified) [tail clamp PNA targeting human CFTR gene with MPγ monomers in Hoogsteen domain]
  comet tail moment: no significant change in comet tail moment
